ChEMBL document CHEMBL1201862, “PubChem BioAssay data set” (2004)
Calls of active or inactive are those of the source.

Assays:
[1] = target: Neuropeptide Y receptor type 1 (Homo sapiens, UniProt P25929); assay type: functional;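 also: HEK293 cells with a CNG channel challenged with NPY then isoproterenol; potency as antagonist that reverses NPY suppression of cAMP signal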
[2] = target: Neuropeptide Y receptor type 2 (Homo sapiens, UniProt P49146); assay type: functional, cell-based;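 also: HEK293 cells expressing the receptor and a CNG channel; stimulus was NPY near EC95 followed by isoproterenol to raise cAMP; antagonist potency measured as restoring cAMP signal that NPY suppresses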
Mucolipin-3 = Mucolipin-3 (Homo sapiens, UniProt Q8TDD5); experiment: Dose response cell-based high-throughput screening assay for agonists of the transient receptor potential channel ML3 (TRPML3). [Related pubchem assays: 1526, 1424, 1448 ]; assay type: functional
Mucolipin-3, sequence (Q8TDD5 whole entry): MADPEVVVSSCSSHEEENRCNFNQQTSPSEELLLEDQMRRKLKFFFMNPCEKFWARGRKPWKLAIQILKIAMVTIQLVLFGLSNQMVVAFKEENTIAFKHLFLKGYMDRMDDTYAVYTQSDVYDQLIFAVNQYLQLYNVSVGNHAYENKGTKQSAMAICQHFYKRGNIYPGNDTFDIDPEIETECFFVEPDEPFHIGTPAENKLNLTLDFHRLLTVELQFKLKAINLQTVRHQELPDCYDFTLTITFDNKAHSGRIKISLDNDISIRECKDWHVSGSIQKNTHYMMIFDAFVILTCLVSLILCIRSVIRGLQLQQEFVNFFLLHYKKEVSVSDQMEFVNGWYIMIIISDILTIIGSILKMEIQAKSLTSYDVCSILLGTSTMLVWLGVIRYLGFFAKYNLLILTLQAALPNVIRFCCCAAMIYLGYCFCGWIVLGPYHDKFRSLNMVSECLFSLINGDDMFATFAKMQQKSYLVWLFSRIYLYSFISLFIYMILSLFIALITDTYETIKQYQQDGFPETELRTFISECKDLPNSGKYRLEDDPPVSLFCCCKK

Ion channel NompC = Ion channel NompC (Danio rerio, UniProt Q7T1G6); experiment: Fluorescence counterscreen assay for TRPML3 agonists: dose response cell-based high-throughput screening assay to identify agonists of the transient receptor potential channel N1 (TRPN1). [Related pubchem assays: 1526, 1424, 1448 ]; assay type: functional
[3] = target: Sphingosine 1-phosphate receptor 2 (Homo sapiens, UniProt O95136); experiment: Dose Response Cell Based Assay for Agonists of the S1P2 Receptor of Purchased Analogues. [Related pubchem assays: 729, 843, 854, 736 ]; assay type: functional
Sphingosine 1-phosphate receptor 2, sequence (O95136 whole entry): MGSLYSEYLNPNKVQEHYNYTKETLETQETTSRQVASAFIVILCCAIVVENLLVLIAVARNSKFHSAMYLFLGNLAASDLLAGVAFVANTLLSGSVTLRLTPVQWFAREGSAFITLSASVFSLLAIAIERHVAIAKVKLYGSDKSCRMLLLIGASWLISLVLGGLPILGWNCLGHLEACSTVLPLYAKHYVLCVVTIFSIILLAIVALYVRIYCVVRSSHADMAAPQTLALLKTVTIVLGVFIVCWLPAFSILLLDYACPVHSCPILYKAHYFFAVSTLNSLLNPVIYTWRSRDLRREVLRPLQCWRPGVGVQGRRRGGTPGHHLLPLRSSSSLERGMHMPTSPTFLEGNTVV

[4] = NIH-3T3 fibroblast cytotoxicity, dose response, cytotoxicity control, cell-based, fluorescence, Alamar Blue, secondary assay (AID 2327); assay type: functional;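 also: NIH-3T3 mouse fibroblasts cultured with fluconazole at 8 µg/mL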
[5] = luciferase reporter signal suppression in cells – H4 neuroglioma cells, luminescence, dose response (AID 1990); assay type: functional, cell-based
[6] = Luminescence Cell-Based Dose Response HTS to Identify Inhibitors of 5'UTR Stem-Loop Driven Prion Protein mRNA Translation in H4 Neuroglioblastoma Cells. [Related pubchem assays: 1827 (Project Summary), 1813 (Primary HTS)]; assay type: functional
[7] = alpha-synuclein stem-loop luciferase translation blockers – H4 neuroglioma cells, luminescence, confirmation (AID 1988); assay type: functional, cell-based
[8] = fluconazole-exposed Candida albicans growth modulators – fluorescence, retest, confirmation (AID 2467); assay type: functional, cell-based
[9] = target: Voltage-gated inwardly rectifying potassium channel KCNH2 (Homo sapiens, UniProt Q12809); experiment: concentration-dependent hERG rescue from blockers – cell-based, thallium flux, dose response (AID 2121); assay type: ADME
Exodeoxyribonuclease V = Exodeoxyribonuclease V (Escherichia coli (strain K12), UniProt P04993+P07648+P08394); experiment: RecBCD inhibition via phage-restricted bacterial growth – absorbance, V66 E. coli, mutant T4 phage, counter-screen for AddAB inhibitor project, dose response (AID 492957); assay type: functional, cell-based, Escherichia coli str. K-12 substr. MG1655
Exodeoxyribonuclease V, sequence (P04993 whole entry): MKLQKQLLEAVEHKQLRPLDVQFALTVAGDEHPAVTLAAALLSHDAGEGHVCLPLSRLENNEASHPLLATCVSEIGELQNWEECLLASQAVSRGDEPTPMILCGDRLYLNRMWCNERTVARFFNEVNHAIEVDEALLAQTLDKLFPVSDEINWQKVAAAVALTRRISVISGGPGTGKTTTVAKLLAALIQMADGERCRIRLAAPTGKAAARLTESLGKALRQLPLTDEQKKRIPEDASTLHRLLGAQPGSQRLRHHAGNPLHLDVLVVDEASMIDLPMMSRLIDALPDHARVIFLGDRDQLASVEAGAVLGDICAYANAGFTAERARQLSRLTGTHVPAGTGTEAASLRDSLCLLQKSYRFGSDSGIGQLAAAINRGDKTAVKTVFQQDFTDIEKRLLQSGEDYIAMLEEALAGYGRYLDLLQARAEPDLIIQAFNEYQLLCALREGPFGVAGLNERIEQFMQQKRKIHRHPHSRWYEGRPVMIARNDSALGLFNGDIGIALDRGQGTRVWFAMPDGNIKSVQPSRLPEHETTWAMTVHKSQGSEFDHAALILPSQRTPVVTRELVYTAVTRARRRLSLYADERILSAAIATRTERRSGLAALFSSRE
Exodeoxyribonuclease V, sequence (P07648 whole entry): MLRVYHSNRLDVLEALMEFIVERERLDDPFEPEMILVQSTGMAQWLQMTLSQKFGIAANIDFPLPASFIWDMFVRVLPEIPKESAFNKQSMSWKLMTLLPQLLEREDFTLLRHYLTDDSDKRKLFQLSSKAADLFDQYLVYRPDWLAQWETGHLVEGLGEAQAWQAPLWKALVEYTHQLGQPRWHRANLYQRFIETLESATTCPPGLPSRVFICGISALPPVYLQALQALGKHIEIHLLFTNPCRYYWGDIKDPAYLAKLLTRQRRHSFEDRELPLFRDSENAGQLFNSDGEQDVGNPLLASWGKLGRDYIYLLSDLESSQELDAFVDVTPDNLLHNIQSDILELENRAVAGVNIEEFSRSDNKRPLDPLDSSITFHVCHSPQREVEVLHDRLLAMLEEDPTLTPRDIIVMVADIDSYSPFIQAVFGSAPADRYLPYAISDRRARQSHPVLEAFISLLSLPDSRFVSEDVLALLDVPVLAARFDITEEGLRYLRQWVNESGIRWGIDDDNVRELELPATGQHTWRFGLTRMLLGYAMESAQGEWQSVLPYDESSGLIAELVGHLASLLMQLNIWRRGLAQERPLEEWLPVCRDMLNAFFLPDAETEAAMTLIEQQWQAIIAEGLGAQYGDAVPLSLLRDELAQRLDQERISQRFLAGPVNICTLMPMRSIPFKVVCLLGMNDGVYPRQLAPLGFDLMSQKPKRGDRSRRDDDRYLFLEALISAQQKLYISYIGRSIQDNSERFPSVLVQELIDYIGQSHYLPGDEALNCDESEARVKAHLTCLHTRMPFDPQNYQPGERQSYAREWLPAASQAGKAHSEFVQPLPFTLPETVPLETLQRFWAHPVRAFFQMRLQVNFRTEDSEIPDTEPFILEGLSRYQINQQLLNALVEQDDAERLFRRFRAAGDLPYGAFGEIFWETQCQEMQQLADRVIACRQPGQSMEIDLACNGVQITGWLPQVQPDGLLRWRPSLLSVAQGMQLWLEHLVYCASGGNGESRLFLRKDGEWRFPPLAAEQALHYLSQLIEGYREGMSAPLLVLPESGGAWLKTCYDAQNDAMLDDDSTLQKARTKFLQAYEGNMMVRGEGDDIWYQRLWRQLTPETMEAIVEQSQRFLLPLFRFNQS
Exodeoxyribonuclease V, sequence (P08394 whole entry): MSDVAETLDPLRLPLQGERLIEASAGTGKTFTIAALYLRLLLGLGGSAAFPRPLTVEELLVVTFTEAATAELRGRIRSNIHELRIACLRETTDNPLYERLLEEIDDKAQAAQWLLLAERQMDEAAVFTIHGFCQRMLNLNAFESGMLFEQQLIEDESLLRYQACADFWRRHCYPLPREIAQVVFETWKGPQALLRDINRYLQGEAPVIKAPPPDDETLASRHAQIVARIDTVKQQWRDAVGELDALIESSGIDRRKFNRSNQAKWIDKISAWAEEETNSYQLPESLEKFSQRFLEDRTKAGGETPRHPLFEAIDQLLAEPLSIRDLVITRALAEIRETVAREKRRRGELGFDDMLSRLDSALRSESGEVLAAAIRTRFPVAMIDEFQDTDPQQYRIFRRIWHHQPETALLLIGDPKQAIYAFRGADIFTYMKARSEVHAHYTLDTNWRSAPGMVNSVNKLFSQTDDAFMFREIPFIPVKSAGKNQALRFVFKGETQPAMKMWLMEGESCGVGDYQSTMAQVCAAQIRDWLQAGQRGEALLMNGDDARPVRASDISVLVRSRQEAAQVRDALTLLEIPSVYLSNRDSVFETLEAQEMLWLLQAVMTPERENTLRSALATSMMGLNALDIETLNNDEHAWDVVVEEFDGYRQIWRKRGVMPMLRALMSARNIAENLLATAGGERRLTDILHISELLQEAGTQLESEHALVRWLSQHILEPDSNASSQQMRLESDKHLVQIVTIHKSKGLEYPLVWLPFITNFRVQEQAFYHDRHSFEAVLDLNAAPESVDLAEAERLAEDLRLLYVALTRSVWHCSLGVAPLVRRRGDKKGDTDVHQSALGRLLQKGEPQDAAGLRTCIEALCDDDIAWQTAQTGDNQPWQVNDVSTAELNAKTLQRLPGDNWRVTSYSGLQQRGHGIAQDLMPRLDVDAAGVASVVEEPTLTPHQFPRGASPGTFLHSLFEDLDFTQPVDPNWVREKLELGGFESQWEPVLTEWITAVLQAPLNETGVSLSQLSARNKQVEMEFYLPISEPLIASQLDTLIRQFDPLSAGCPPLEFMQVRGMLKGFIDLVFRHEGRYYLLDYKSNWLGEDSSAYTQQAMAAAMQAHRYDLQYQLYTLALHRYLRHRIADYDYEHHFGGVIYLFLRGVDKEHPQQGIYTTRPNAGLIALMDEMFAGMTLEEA

[10] = Luminescence Cell-Based Dose Retest to Confirm Inhibitors of Cancer Stem Cells. [Related pubchem assays (depositor defined):AID2717, AID2721]; assay type: functional; conditions: Homo sapiens
[11] = Counterscreen for AddAB inhibitors: absorbance-based bacterial cell-based high throughput dose response assay for inhibitors of bacterial viability. [Related pubchem assays (depositor defined):AID435030, AID449728, AID449731, AID488942, AID488955, AID488956]; assay type: functional
[12] = reduction of Shn3 3'UTR-driven luciferase in osteoblasts – cell-based, Clone20 osteoblasts, firefly luciferase, cherry-picked, dose response (AID 624132); assay type: functional;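 also: firefly luciferase luminescence from reporter carrying the Shn3 3'UTR in osteoblasts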
[13] = loss of viability in HepG2 cells – cell-based, CellTiter-Glo, cherry-picked, cytotoxicity control for Shn3 inhibitor project, dose response (AID 624134); assay type: functional
[14] = non-specific 3'UTR reporter inhibition in Clone20-Shn3RL – cell-based, Renilla luciferase, cherry-picked, counter-screen for Shn3 inhibitor project, dose response (AID 624133); assay type: functional
Cytochrome P450 2D6 = Cytochrome P450 2D6 (Homo sapiens, UniProt P10635);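 also: CYP2D6 member of a cytochrome P450 panel assay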
Cytochrome P450 1A2 = target: T1, Cytochrome P450 1A2 (Homo sapiens, UniProt P05177);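 also: PubChem cytochrome P450 panel assay, CYP1A2 panel member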
T1 sequence (P05177 whole entry): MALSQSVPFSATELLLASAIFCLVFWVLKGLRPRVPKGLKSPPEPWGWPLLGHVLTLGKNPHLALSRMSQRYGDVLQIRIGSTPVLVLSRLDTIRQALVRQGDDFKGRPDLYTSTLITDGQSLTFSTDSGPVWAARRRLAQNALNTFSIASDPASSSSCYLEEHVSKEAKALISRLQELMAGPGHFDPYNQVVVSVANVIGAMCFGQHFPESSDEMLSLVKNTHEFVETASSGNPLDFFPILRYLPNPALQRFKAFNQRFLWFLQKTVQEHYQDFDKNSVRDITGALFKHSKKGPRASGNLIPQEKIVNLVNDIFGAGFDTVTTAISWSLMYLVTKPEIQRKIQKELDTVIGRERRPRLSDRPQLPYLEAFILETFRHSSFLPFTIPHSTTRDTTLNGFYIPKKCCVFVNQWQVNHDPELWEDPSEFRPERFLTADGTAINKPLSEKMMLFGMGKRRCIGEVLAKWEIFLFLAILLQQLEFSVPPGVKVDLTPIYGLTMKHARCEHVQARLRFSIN

NADPH oxidase 1 = NADPH oxidase 1 (Homo sapiens, UniProt Q9Y5S8); assay type: functional, cell-based;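 also: Cell-based assay with luminescence read-out, IC50 derived from inhibitor dose-response curves; intracellular ROS from endogenous NOX1 in intact HT29 colon cancer cells; potency of inhibitors that lower the ROS luminescence signal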
NADPH oxidase 1, sequence (Q9Y5S8 whole entry, the tested form may be a part): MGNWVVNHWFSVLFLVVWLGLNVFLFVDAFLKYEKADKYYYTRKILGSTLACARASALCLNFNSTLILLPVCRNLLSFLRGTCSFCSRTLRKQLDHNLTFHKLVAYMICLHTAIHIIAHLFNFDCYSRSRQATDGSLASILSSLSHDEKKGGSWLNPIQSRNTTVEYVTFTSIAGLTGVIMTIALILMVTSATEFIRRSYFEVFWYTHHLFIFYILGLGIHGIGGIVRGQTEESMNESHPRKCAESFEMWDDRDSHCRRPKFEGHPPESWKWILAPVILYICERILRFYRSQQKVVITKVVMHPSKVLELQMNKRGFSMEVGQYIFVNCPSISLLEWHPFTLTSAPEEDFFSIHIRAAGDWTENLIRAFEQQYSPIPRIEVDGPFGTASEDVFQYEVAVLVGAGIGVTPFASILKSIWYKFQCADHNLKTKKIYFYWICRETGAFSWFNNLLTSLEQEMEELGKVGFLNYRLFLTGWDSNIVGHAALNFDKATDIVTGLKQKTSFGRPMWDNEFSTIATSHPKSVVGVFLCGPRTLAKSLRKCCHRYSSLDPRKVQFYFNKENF

[15] = target: T2, RNA-binding protein pos-1 (Caenorhabditis elegans, UniProt G5EF15); experiment: disruptors of C. elegans POS-1 RNA interaction – biochemical, fluorescence polarization, dose response (AID 1964);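 also: purified POS-1 fused to maltose binding protein made in E. coli; potency of compounds blocking POS-1 binding to fluorescent RNA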
T2 sequence (G5EF15 whole entry): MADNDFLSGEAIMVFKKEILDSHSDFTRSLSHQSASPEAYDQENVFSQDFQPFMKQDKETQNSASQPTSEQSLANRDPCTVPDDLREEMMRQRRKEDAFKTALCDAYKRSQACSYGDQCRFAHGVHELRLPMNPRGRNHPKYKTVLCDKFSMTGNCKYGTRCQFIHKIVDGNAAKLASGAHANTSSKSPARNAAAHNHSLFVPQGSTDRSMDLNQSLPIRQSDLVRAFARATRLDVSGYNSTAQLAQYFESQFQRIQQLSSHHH

[16] = target: T3, Zinc finger protein mex-5 (Caenorhabditis elegans, UniProt Q9XUB2); experiment: potency of MEX-5 RNA-binding blockers – biochemical, C. elegans, fluorescence polarization, dose response (AID 1960)
T3 sequence (Q9XUB2 whole entry): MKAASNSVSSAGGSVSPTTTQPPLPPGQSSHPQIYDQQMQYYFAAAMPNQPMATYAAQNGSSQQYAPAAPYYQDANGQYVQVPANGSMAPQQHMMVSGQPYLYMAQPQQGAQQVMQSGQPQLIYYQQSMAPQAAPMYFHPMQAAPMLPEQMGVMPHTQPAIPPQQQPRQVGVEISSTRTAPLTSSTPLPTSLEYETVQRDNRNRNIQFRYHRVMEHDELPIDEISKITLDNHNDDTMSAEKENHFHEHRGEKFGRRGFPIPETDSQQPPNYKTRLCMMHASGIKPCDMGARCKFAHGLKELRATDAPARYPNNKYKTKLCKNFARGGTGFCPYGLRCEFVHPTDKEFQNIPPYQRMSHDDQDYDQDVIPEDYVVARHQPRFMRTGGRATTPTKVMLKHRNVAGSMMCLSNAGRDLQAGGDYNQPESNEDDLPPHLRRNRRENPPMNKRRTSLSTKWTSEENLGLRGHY

[17] = target: T4, Heat shock factor protein 1 (Mus musculus, UniProt P38532); experiment: decrease of HSF1-responsive luciferase luminescence – cell-based, NIH3T3, dose retest, confirmation (AID 2382); assay type: functional;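 also: NIH3T3 fibroblasts with HSF1-driven luciferase reporter stressed by proteasome inhibitor MG132; luminescence from HSF1-driven luciferase expression after 8 hours of MG132 stress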
T4 sequence (P38532 whole entry): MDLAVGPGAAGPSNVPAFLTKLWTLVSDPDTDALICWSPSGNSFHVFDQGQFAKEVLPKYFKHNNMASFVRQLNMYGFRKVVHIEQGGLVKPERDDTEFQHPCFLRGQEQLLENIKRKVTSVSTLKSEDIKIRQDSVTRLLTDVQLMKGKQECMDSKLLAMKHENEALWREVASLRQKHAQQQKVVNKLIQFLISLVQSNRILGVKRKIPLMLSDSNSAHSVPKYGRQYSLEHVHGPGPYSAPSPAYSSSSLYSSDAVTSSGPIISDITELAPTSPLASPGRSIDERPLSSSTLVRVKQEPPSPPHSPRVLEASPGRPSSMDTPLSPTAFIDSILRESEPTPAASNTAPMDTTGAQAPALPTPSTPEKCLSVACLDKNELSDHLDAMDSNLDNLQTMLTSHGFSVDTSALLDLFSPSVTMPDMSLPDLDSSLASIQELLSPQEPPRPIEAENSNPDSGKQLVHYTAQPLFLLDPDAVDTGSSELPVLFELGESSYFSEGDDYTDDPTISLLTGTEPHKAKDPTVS

[18] = M. tuberculosis H37Rv growth inhibitors, H37Rv strain (AID 1626); assay type: functional

Neuropeptide Y receptor type 1, sequence (P25929 whole entry): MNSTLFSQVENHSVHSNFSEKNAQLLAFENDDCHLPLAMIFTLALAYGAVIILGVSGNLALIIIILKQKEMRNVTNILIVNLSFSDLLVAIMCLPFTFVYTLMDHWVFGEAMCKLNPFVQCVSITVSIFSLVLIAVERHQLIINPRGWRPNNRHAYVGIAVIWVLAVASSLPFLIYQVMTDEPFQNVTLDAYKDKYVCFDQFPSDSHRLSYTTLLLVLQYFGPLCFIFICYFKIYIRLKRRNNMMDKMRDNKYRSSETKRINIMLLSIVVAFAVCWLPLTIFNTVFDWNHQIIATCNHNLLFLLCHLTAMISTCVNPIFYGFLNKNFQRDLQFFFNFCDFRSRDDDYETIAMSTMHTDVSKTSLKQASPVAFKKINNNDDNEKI

SMILES: COc1ccc(-c2nc(C#N)c(NC(C)c3ccccc3)o2)cc1OC (centres undefined)
- IC50 [1]: 7.77 µM (active)
- IC50 [2]: 3.55 µM (active)

SMILES: COc1cc(S(=O)(=O)N(C)C2CCCCC2)c(C)cc1C
- EC50 (Mucolipin-3): 3.06 µM (active)
- EC50 (Ion channel NompC): > 29.9 µM (not active)

SMILES: Cc1cc(C(=O)CSc2ncccn2)c(C)n1Cc1ccccc1
- EC50 [3]: > 30 µM (not active)

SMILES: Cc1cc([N+](=O)[O-])ccc1-c1ccc(C2Nc3ccccc3C(=O)N2O)o1 (centres undefined)
- EC50 [4]: > 160 µM (inconclusive)
- EC50 [5]: 10.3 µM (active)
- EC50 [6]: 10.4 µM (active)
- EC50 [7]: 8.61 µM (active)
- EC50 [8]: 1.31 µM (active)
- EC50 [9]: 2.58 µM (active)
- IC50 (Exodeoxyribonuclease V): > 119 µM (inactive)
- AC50 [10]: 5.3 µM (active)
- IC50 [11]: > 119 µM (inactive)
- AC50 [12]: 3.32 µM (active)
- AC50 [13]: 32.9 µM (active)
- AC50 [14]: 11.3 µM (active)
- AC50 (Cytochrome P450 2D6): 20 µM (inconclusive)
- AC50 (Cytochrome P450 1A2): 25.1 µM (inconclusive)

SMILES: O=[N+]([O-])c1ccc(-c2nc(-c3ccccc3)c(-c3ccccc3)[nH]2)cc1
- IC50 (NADPH oxidase 1): > 17 µM (not active)

SMILES: COc1ccc(/N=C/c2c(O)ccc3ccccc23)cc1
- EC50 [15]: > 300 µM (not active)
- EC50 [16]: > 300 µM (not active)
- EC50 [17]: 35.1 µM (active)
- IC50 [18]: > 100 µM (active)
